Activity, IC50 and Survival data for nine compounds are collected here from ChEMBL document CHEMBL1828585, “Reverse fosmidomycin derivatives against the antimalarial drug target IspC (Dxr)” (J Med Chem, 2011).

For orientation: IC50 means the point on the concentration scale where inhibition reaches its midpoint.

Molecules are shown by their SMILES. Active and inactive are the calls of the source. No cut-off for these calls is given here. Some results are limits rather than exact numbers.

Test [1] deals with Plasmodium berghei. The experiment in a line: Antimalarial activity against Plasmodium berghei ANKA infected in Swiss mouse assessed as suppression of infected RBC at 40 mg/kg, ip bid for 5 days coadministered with ritonavir 10 mg/kg, po. In kind it is functional.
Another test relates to MRC5. The experiment in a line: Cytotoxicity against human MRC5 cells. In kind it is cell-based.
Test [2] relates to Plasmodium berghei. The experiment in a line: Antimalarial activity against Plasmodium berghei ANKA infected in Swiss mouse assessed as survival at 40 mg/kg, ip bid for 5 days coadministered with ritonavir 10 mg/kg, po.
The test system of a further test is Plasmodium falciparum. Briefly: Antimicrobial activity against chloroquine-resistant Plasmodium falciparum K1 infected in human erythrocytes assessed as inhibition of parasite replication. It is filed as functional, organism-based.
The nature of test [3]: Inhibition of Plasmodium falciparum IspC.
Test [4] is described as follows: Inhibition of Escherichia coli IspC.
The test system of test [5] is Plasmodium berghei. Briefly: Antimalarial activity against Plasmodium berghei ANKA infected in Swiss mouse assessed as suppression of infected RBC at 10 mg/kg, ip qd for 5 days coadministered with ritonavir 10 mg/kg, po measured on day 4. In kind it is functional.
For test [6], the system named is Plasmodium berghei. Briefly: Antimalarial activity against Plasmodium berghei ANKA infected in Swiss mouse assessed as survival at 10 mg/kg, ip qd for 5 days coadministered with ritonavir 10 mg/kg, po.
Setting [7] is: Plasmodium falciparum, K1, read-out: IC50.

On to `O=C(CCC(c1ccc(F)c(F)c1)P(=O)(O)O)NO` (centres undefined), for which the Activity in the test on Plasmodium berghei [1] turned out to be 89%. The IC50 in the test on MRC5 was greater than 64000 nM; with Plasmodium falciparum (setting [7]), 380 nM; in test [3] (read-out: IC50) it was 3 nM; in test [4] (read-out: IC50) it was 210 nM. The Survival result in the test with Plasmodium berghei [2] is “Active”.

`CN(O)C(=O)CCC(c1ccc(Cl)c(Cl)c1)P(=O)(O)O` (centres undefined): the half-inhibitory concentration (IC50) was greater than 64000 nM in the test on MRC5, 410 nM with Plasmodium falciparum (setting [7]), 4 nM in test [3] (read-out: IC50) and 290 nM in test [4] (read-out: IC50).

For the compound `CCN(O)C(=O)CCC(c1ccccc1)P(=O)(O)O` (centres undefined), the IC50 was greater than 64000 nM in the test on MRC5, 1300 nM in the test on Plasmodium falciparum (setting [7]), 15 nM in test [3] (read-out: IC50) and 15000 nM in test [4] (read-out: IC50).

Take `CC(C)N(O)C(=O)CCC(c1ccccc1)P(=O)(O)O` (centres undefined): the concentration for half-maximal inhibition (IC50) was greater than 64000 nM in the test with MRC5, “Not Active” with Plasmodium falciparum, “Not Active” in test [3] and “Not Active” in test [4].

As for `CN(O)C(=O)CCC(c1cccc2ccccc12)P(=O)(O)O` (centres undefined), the IC50 was greater than 62000 nM in the test on MRC5, 970 nM in the test with Plasmodium falciparum (setting [7]), 9 nM in test [3] (read-out: IC50) and 3800 nM in test [4] (read-out: IC50).

`O=C(CCC(c1cccc2ccccc12)P(=O)(O)O)NO` (centres undefined): the IC50 in the test with MRC5 was greater than 64000 nM; in the test with Plasmodium falciparum (setting [7]) it was 2400 nM; in test [3] (read-out: IC50), 37 nM; in test [4] (read-out: IC50), 7400 nM.

As to `CCN(CC)CCCC(C)Nc1ccnc2cc(Cl)ccc12` (centres undefined) [CHLOROQUINE], in the test with Plasmodium berghei [5], the Activity is 98%. In addition, in the test on Plasmodium berghei [6], the Survival entry was “Active”.

Consider `O=CN(O)CCCP(=O)(O)O` [FOSMIDOMYCIN], for which the Activity in the test with Plasmodium berghei [1] was 92%. In addition, the IC50 in the test with MRC5 is greater than 62000 nM; in the test on Plasmodium falciparum (setting [7]), 3700 nM; in test [3] (read-out: IC50), 140 nM; in test [4] (read-out: IC50) it was 220 nM. For the same compound, the Survival result in the test with Plasmodium berghei [2] is “Active”.

Take `CN(O)C(=O)CCC(c1ccc(F)c(F)c1)P(=O)(O)O` (centres undefined): the Activity in the test on Plasmodium berghei [1] was 78%. Moreover, the IC50 in the test with MRC5 is greater than 64000 nM; in the test on Plasmodium falciparum (setting [7]), 290 nM; in test [3] (read-out: IC50), 3 nM. Also, the Survival result in the test on Plasmodium berghei [2] was “inactive”.
